“And” between values parts separate entries of the source, which are not always exact repeats. Equal entries are not always repeated. Where two headings read alike, the source gives them in different places.
How the values were obtained:
[1] = biological target: T1, β-secretase(BACE) (Homo sapiens, UniProt P56817); assay: BACE Assay-2 (FS1 substrate, IC50 and Ki); format: biochemical; details: procedure of Example 159, FS1 substrate; read-out: Ki μM (159)
T1 construct: purchased Panvera

[2] = biological target: T1, β-secretase(BACE); assay: BACE FS1% Inhibition Assay; format: biochemical; details: FS1 substrate
How it was run: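 Percent inhibition at each tested concentration, referenced to enzyme-free blank and vehicle-only positive control. Reaction: compound and BACE (4 μg/mL working stock) mixed 20 min at room temperature before FS1 substrate (300 μg/mL working stock), then 1 h at room temperature.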

[3] = 0.3 μM test compound, read-out: % Inhibition (FS) 0.3 μM
[4] = 1 μM test compound, read-out: % Inhibition (FS) 1 μM
[5] = 3 μM test compound, read-out: % Inhibition (FS) 3 μM
[6] = 0.3 μM test compound, read-out: % Inhibition (FS)
[7] = 1 μM test compound, read-out: % Inhibition (FS)
[8] = 3 μM test compound, read-out: % Inhibition (FS)

T1 sequence (P56817 46-501): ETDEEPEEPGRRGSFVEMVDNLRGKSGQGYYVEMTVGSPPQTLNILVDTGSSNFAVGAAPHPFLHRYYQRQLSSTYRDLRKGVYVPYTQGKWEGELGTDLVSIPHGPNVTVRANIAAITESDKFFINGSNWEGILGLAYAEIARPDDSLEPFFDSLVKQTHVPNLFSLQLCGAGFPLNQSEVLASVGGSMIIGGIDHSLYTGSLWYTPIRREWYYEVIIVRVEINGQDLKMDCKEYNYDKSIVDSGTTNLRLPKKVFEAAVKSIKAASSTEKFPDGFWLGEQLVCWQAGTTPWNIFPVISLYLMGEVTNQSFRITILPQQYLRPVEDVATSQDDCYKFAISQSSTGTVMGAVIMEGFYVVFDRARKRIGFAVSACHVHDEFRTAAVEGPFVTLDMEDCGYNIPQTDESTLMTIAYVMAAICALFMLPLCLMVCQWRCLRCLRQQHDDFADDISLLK

| SMILES | Ki [1] | inhibition at 0.3 µM [2, 3] | inhibition at 1 µM [2, 4] | inhibition at 3 µM [2, 5] | inhibition at 0.3 µM [2, 6] | inhibition at 1 µM [2, 7] | inhibition at 3 µM [2, 8] | % Inhibition (FS) 0.3 μM ([2]; 0.3 μM test compound) | % Inhibition (FS) 1 μM ([2]; 1 μM test compound, 1 µM) | % Inhibition (FS) 3 μM ([2]; 3 μM test compound, 3 µM) | inhibition at 10 µM ([2]; 10 μM test compound, read-out: % Inhibition (FS) 10 μM) |
| --- | --- | --- | --- | --- | --- | --- | --- | --- | --- | --- | --- |
| CC(C)CCC(=O)NCCN1Cc2cc(-c3ccccc3Cl)ccc2N=C1N [Compound 654] | 0.046 µM | 83% | 102% | 111% |  |  |  |  |  |  |  |
| CCC(c1cccc(C(=O)N(C2CCCCC2)C2CCCCC2)c1)N1Cc2cc(Oc3ccccc3)ccc2N=C1N (stereo not shown) [Compound 419] | 0.29 µM | 38% | 64% | 109% |  |  |  |  |  |  |  |
| COC(=O)[C@H](COCc1ccccc1)N(C)C(=O)CC[C@@H](C1CCOCC1)N1Cc2cc(Oc3ccccc3)ccc2N=C1N [Compound 786] | 0.101 µM |  |  |  | 97% | 105% | 114% |  |  |  |  |
| CCCN1Cc2cc(Oc3cccc(NCc4ccc(C)cc4)c3)ccc2N=C1N [Compound 729] | 0.33 µM |  |  |  | 33% | 61% | 100% |  |  |  |  |
| NC1=Nc2ccc(Oc3ccccc3)cc2CN1[C@@H](CCC(=O)N(CCO)[C@H]1CC[C@@H](C(=O)O)CC1)C1CCOCC1 [Compound 750, (S)-Enantiomer of 4-cis-[[4-(2-Amino-6-phenoxy-4H-quinazolin-3-yl)-4-(tetrahydro-pyran-4-yl)-butyryl]-(2-hydroxy-ethyl)-amino]-cyclohexanecarboxylic acid] | 0.005 µM |  |  |  | 115% | 114% | 116% |  |  |  |  |
| Cc1ccccc1-c1ccc2c(c1)CN(CCNC(=O)C1CCCC1)C(N)=N2 [Compound 657, Cyclopentanecarboxylic acid [2-(2-amino-6-o-tolyl-4H-quinazolin-3-yl)-ethyl]-amide] | 0.032 µM | 88% | 103% | 111% |  |  |  |  |  |  |  |
| COc1cccc(Oc2ccc3c(c2)CN(Cc2cccc(C(=O)N(C)C4CCCCC4)c2)C(N)=N3)c1 [Compound 292] | 1 µM | < 30% | 49% | 83% |  |  |  |  |  |  |  |
| CN(C(=O)CC[C@@H](C(=O)N(C)C1CCCCC1)N1Cc2cc(Oc3ccccc3)ccc2N=C1N)C1CCCCC1 [Compound 634, (S)-enantiomer of 2-(2-Amino-6-phenoxy-4H-quinazolin-3-yl)-pentanedioic acid bis-(cyclohexyl-methyl-amide)] | 0.054 µM | 46% | 88% | 114% |  |  |  |  |  |  |  |
| CC(C)N(C(=O)CCN1Cc2cc(Oc3ccccc3)ccc2N=C1N)C1CCCCC1 [Compound 179] | 1.04 µM | < 30% | 54% | 85% |  |  |  |  |  |  |  |
| COC(=O)[C@@H](COCc1ccccc1)N(C)C(=O)CC[C@@H](C1CCCCC1)N1Cc2cc(Oc3ccccc3)ccc2N=C1N [Compound 779] | 0.045 µM |  |  |  | 102% | 107% | 120% |  |  |  |  |
| CN(CCCN1Cc2cc(Oc3ccccc3)ccc2N=C1N)C1CCCCC1 [Compound 428, 3-[3-(Cyclohexyl-methyl-amino)-propyl]-6-phenoxy-3,4-dihydro-quinazolin-2-ylamine] | 0.23 µM | < 30% | 60% | 98% |  |  |  |  |  |  |  |
| Cc1cccc(-c2ccc3c(c2)CN(CCNC(=O)C2CCCCC2)C(N)=N3)c1 [Compound 627] | 0.16 µM | 39% | 75% | 105% |  |  |  |  |  |  |  |
| COC(=O)[C@H]1CC[C@@H](N(CCO)C(=O)CC[C@@H](C2CCCCC2)N2Cc3cc(Oc4ccccc4)ccc3N=C2N)CC1 [Compound 762] | 0.111 µM |  |  |  | 74% | 102% | 113% |  |  |  |  |
| NC1=Nc2ccc(-c3cccc(CO)c3)cc2CN1CCNC(=O)CC1CCCC1 [Compound 583] | 0.49 µM | 40% | 56% | 86% |  |  |  |  |  |  |  |
| CN(C(=O)c1cccc(CN2Cc3cc(-c4ccccc4S(=O)(=O)NC(C)(C)C)ccc3N=C2N)c1)C1CCCCC1 [Compound 158] | 0.81 µM | < 30% |  | 60% |  |  |  | <30% | <30% and 53% | 79% |  |
| CN(C(=O)CCCC(c1ccccc1)N1Cc2cc(Oc3ccccc3)ccc2N=C1N)C1CCCCC1 (stereo not shown) [Compound 152] | 0.3 µM |  |  | 85% |  |  |  |  |  |  | 107% |
| CC(C)CN(CC(C)C)C(=O)c1cccc(CN2Cc3cc(Oc4ccccc4)ccc3N=C2N)c1 [Compound 211] | 0.69 µM | < 30% | < 30% | 68% |  |  |  |  |  |  |  |
| CN(C(=O)c1cccc(CN2Cc3cc(-c4ccccc4C(N)=O)ccc3N=C2N)c1)C1CCCCC1 [Compound 173] | 0.47 µM | < 30% | 53% | 76% |  |  |  |  |  |  |  |
| CN(C(=O)CC[C@@H]([C@H]1CC[C@@H](O)CC1)N1Cc2cc(Oc3ccccc3)ccc2N=C1N)C1CCCCC1 [Compound 731, 4-(2-Amino-6-phenoxy-4H-quinazolin-3-yl)-N-cyclohexyl-4-(cis-4-hydroxy-cyclohexyl)-N-methyl-butyramide] | 0.087 µM |  |  |  | 56% | 114% | 132% |  |  |  |  |
| CN(C(=O)CC[C@@H](C1CCCCC1)N1Cc2cc(Oc3ccccc3)ccc2N=C1N)[C@H]1CC[C@@H](C(=O)O)CC1 [Compound 739, (S)-enantiomer of 4-cis-{[4-(2-Amino-6-phenoxy-4H-quinazolin-3-yl)-4-cyclohexyl-butyryl]-methyl-amino}-cyclohexanecarboxylic acid] | 0.005 µM |  |  |  | 99% | 104% | 105% |  |  |  |  |
| COc1cccc(F)c1-c1ccc2c(c1)CN(CCNC(=O)C1CCCCC1)C(N)=N2 [Compound 545] | 0.14 µM | 55% | 77% | 118% |  |  |  |  |  |  |  |
| CN(C(=O)c1cccc(CN2Cc3cc(Oc4cccc(-c5ccccc5)c4)ccc3N=C2N)c1)C1CCCCC1 [Compound 231] | 3.8 µM | < 30% | 71% | 75% |  |  |  |  |  |  |  |
| CN(C(=O)CC[C@@H](CO)N1Cc2cc(Oc3ccccc3)ccc2N=C1N)C1CCCCC1 [Compound 558, (S)-enantiomer of 4-(2-Amino-6-phenoxy-4H-quinazolin-3-yl)-5-hydroxy-pentanoic acid cyclohexyl-methyl-amide] | 0.16 µM | 42% | 92% | 115% |  |  |  |  |  |  |  |
| NC1=Nc2ccc(Oc3ccccc3)cc2CN1[C@@H](CCC(=O)N[C@@H](CO)C(=O)O)C1CCOCC1 [Compound 771] | 0.173 µM |  |  |  | 46% | 79% | 105% |  |  |  |  |

Source: US8383637B2, “2-amino-quinazoline derivatives useful as inhibitors of β-secretase (BACE)” (Jansssen Pharmaceutica N.V., priority 2004, dated 2013)
